Where a name gives a salt, the structure may show the parent alone.
The compounds below were run on KMS.12.BM cells (assay: KMS.12.BM Cell Viability Assay (Example B1)). Conditions: Homo sapiens, 72 h, 3 days, Cell Titer-GLO, read-out: KMS cellular IC50.
Type: cell-based, human
In short: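 KMS.12.BM human myeloma cells, 5000 cells/well in RPMI with 10% FBS, exposed to a compound concentration range for 3 days. Viable cells measured by ATP-based Cell Titer-GLO luminescence after 10 min at room temperature.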

SMILES | IC50
Cc1noc(C)c1-c1ccc2[nH]c(=O)n3c2c1OCC3c1cccc[n+]1[O-] (stereo not drawn) [Example 16, 7-(3,5-Dimethylisoxazol-4-yl)-4-(1-oxidopyridin-2-yl)-4,5-dihydroimidazo[1,5,4-de][1,4]benzoxazin-2(1H)-one] | < 1 µM
Cc1noc(C)c1-c1ccc2nc(N3CC[C@H](N(C)C)C3)n3c2c1OC[C@@H]3c1ccccn1 [Example 180B, (3S)-1-[(4S)-7-(3,5-dimethylisoxazol-4-yl)-4-pyridin-2-yl-4,5-dihydroimidazo[1,5,4-de][1,4]benzoxazin-2-yl]-N,N-dimethylpyrrolidin-3-amine] | < 1 µM
Cc1noc(C)c1-c1ccc2nc(N3CCCC3)n3c2c1OC[C@@H]3c1ccccn1 [Example 162, (4S)-7-(3,5-dimethylisoxazol-4-yl)-4-pyridin-2-yl-2-pyrrolidin-1-yl-4,5-dihydroimidazo[1,5,4-de][1,4]benzoxazine] | < 1 µM
COCC(=O)N(C)[C@@H]1CCN(c2nc3ccc(-c4c(C)noc4C)c4c3n2[C@@H](c2ccccn2)CO4)C1 [Example 221, N-{(3R)-1-[(4S)-7-(3,5-dimethylisoxazol-4-yl)-4-pyridin-2-yl-4,5-dihydroimidazo[1,5,4-de][1,4]benzoxazin-2-yl]pyrrolidin-3-yl}-2-methoxy-N-methylacetamide] | < 1 µM
Cc1noc(C)c1-c1ccc2nc(N3CC(NC(=O)OC(C)(C)C)C3)n3c2c1OC[C@@H]3c1ccccn1 [Example 196, tert-butyl {1-[(4S)-7-(3,5-dimethylisoxazol-4-yl)-4-pyridin-2-yl-4,5-dihydroimidazo[1,5,4-de][1,4]benzoxazin-2-yl]azetidin-3-yl}carbamate] | < 1 µM
CCNC(=O)[C@@H]1CCN(c2nc3ccc(-c4c(C)noc4C)c4c3n2[C@@H](c2ccccn2)CO4)C1 [Example 250, (3R)-1-[(4S)-7-(3,5-dimethylisoxazol-4-yl)-4-pyridin-2-yl-4,5-dihydroimidazo[1,5,4-de][1,4]benzoxazin-2-yl]-N-ethylpyrrolidine-3-carboxamide] | < 1 µM
Cc1noc(C)c1-c1cc(-c2cn[nH]c2)c2[nH]c(=O)n3c2c1OCC3c1ccccn1 (stereo not drawn) [Example 256, 7-(3,5-dimethylisoxazol-4-yl)-9-(1H-pyrazol-4-yl)-4-pyridin-2-yl-4,5-dihydroimidazo[1,5,4-de][1,4]benzoxazin-2(1H)-one] | < 1 µM
COC(=O)N[C@@H]1CCN(c2nc3ccc(-c4c(C)noc4C)c4c3n2[C@@H](c2ccccn2)CO4)C1 [Example 155, Methyl {(3R)-1-[(4S)-7-(3,5-dimethylisoxazol-4-yl)-4-pyridin-2-yl-4,5-dihydroimidazo[1,5,4-de][1,4]benzoxazin-2-yl]pyrrolidin-3-yl}carbamate] | < 1 µM
CCC(=O)N1CCN(c2nc3ccc(-c4c(C)noc4C)c4c3n2[C@@H](c2ccccn2)CO4)CC1 [Example 225, (4S)-7-(3,5-dimethylisoxazol-4-yl)-2-(4-propionylpiperazin-1-yl)-4-pyridin-2-yl-4,5-dihydroimidazo[1,5,4-de][1,4]benzoxazine] | < 1 µM
Cc1noc(C)c1-c1ccc2nc(N3CCC(C)(O)CC3)n3c2c1OC[C@@H]3c1ccccn1 [Example 194, 1-[(4S)-7-(3,5-dimethylisoxazol-4-yl)-4-pyridin-2-yl-4,5-dihydroimidazo[1,5,4-de][1,4]benzoxazin-2-yl]-4-methylpiperidin-4-ol] | < 1 µM
Cc1noc(C)c1-c1ccc2nc(C(C)O)n3c2c1OC[C@@H]3c1ccccn1 (stereo partly drawn) [Example 90, 1-[(4S)-7-(3,5-Dimethylisoxazol-4-yl)-4-pyridin-2-yl-4,5-dihydroimidazo[1,5,4-de][1,4]benzoxazin-2-yl]ethanol] | < 1 µM
Cc1noc(C)c1-c1ccc2[nH]c(=O)n3c2c1OCC3C1CCCO1 (single isomer, unassigned) [Example 18A, 7-(3,5-Dimethylisoxazol-4-yl)-4-(tetrahydrofuran-2-yl)-4,5-dihydroimidazo[1,5,4-de][1,4]benzoxazin-2(1H)-one] | < 1 µM
Cc1noc(C)c1-c1ccc2nc(N3CCC(O)C3)n3c2c1OCC3c1ccccc1 (stereo not drawn) [Example 55, 1-[7-(3,5-Dimethylisoxazol-4-yl)-4-phenyl-4,5-dihydroimidazo[1,5,4-de][1,4]benzoxazin-2-yl]pyrrolidin-3-ol] | < 1 µM
Cc1noc(C)c1-c1ccc2nc(N3CC(N)C3)n3c2c1OC[C@@H]3c1ccccn1 [Example 230, 1-[(4S)-7-(3,5-dimethylisoxazol-4-yl)-4-pyridin-2-yl-4,5-dihydroimidazo[1,5,4-de][1,4]benzoxazin-2-yl]azetidin-3-amine trihydrochloride] | < 1 µM
Cc1noc(C)c1-c1ccc2nc(C3CCN(S(C)(=O)=O)CC3)n3c2c1OC[C@@H]3c1ccccn1 [Example 112, (4S)-7-(3,5-dimethylisoxazol-4-yl)-2-[1-(methylsulfonyl)piperidin-4-yl]-4-pyridin-2-yl-4,5-dihydroimidazo[1,5,4-de][1,4]benzoxazine] | < 1 µM
CC(=O)NC1CN(c2nc3ccc(-c4c(C)noc4C)c4c3n2[C@@H](c2ccccn2)CO4)C1 [Example 231, N-{1-[(4S)-7-(3,5-dimethylisoxazol-4-yl)-4-pyridin-2-yl-4,5-dihydroimidazo[1,5,4-de][1,4]benzoxazin-2-yl]azetidin-3-yl}acetamide] | < 1 µM
Cc1noc(C)c1-c1ccc2nc(N3CC[C@@H](C(=O)NC4CC4)C3)n3c2c1OC[C@@H]3c1ccccn1 [Example 251, (3R)-N-cyclopropyl-1-[(4S)-7-(3,5-dimethylisoxazol-4-yl)-4-pyridin-2-yl-4,5-dihydroimidazo[1,5,4-de][1,4]benzoxazin-2-yl]pyrrolidine-3-carboxamide] | < 1 µM
CNc1nc2ccc(-c3c(C)noc3C)c3c2n1C(c1ccccn1)CO3 (stereo not drawn) [Example 186, 7-(3,5-dimethylisoxazol-4-yl)-N-methyl-4-pyridin-2-yl-4,5-dihydroimidazo[1,5,4-de][1,4]benzoxazin-2-amine] | < 1 µM
Cc1noc(C)c1-c1cc(-c2ccnc(O)c2)c2[nH]c(=O)n3c2c1OC[C@@H]3c1ccccn1 [Example 260, (4S)-7-(3,5-dimethylisoxazol-4-yl)-9-(2-hydroxypyridin-4-yl)-4-pyridin-2-yl-4,5-dihydroimidazo[1,5,4-de][1,4]benzoxazin-2(1H)-one] | 1 to 10 µM
CCCS(=O)(=O)N[C@@H]1CCN(c2nc3ccc(-c4c(C)noc4C)c4c3n2[C@@H](c2ccccn2)CO4)C1 [Example 215, N-{(3R)-1-[(4S)-7-(3,5-dimethylisoxazol-4-yl)-4-pyridin-2-yl-4,5-dihydroimidazo[1,5,4-de][1,4]benzoxazin-2-yl]pyrrolidin-3-yl}propane-1-sulfonamide] | < 1 µM
Cc1noc(C)c1-c1ccc2nc(N3CC[C@H](NC(=O)OC(C)(C)C)C3)n3c2c1OC[C@@H]3c1ccccn1 [Example 182B, tert-butyl {(3S)-1-[(4S)-7-(3,5-dimethylisoxazol-4-yl)-4-pyridin-2-yl-4,5-dihydroimidazo[1,5,4-de][1,4]benzoxazin-2-yl]pyrrolidin-3-yl}carbamate] | < 1 µM
COCC(=O)NC1CCN(c2nc3ccc(-c4c(C)noc4C)c4c3n2[C@@H](c2ccccn2)CO4)CC1 [Example 241, N-{1-[(4S)-7-(3,5-dimethylisoxazol-4-yl)-4-pyridin-2-yl-4,5-dihydroimidazo[1,5,4-de][1,4]benzoxazin-2-yl]piperidin-4-yl}-2-methoxyacetamide] | < 1 µM
Cc1noc(C)c1-c1ccc2nc(N3CC[C@@H](N(C)S(C)(=O)=O)C3)n3c2c1OC[C@@H]3c1ccccn1 [Example 220, N-{(3R)-1-[(4S)-7-(3,5-dimethylisoxazol-4-yl)-4-pyridin-2-yl-4,5-dihydroimidazo[1,5,4-de][1,4]benzoxazin-2-yl]pyrrolidin-3-yl}-N-methylmethanesulfonamide] | < 1 µM
Cc1noc(C)c1-c1cc(Br)c2[nH]c(=O)n3c2c1OCC3c1ccccc1 (stereo not drawn) [Example 45, 9-Bromo-7-(3,5-Dimethylisoxazol-4-yl)-4-phenyl-4,5-dihydroimidazo[1,5,4-de][1,4]benzoxazin-2(1H)-one] | < 1 µM
CC(=O)NCc1ncccc1C1COc2c(-c3c(C)noc3C)ccc3[nH]c(=O)n1c23 (stereo not drawn) [Example 131, N-({3-[7-(3,5-Dimethylisoxazol-4-yl)-2-oxo-1,2,4,5-tetrahydroimidazo[1,5,4-de][1,4]benzoxazin-4-yl]pyridin-2-yl}methyl)acetamide] | < 1 µM
Cc1noc(C)c1-c1ccc2nc(N3CC[C@@H](NS(=O)(=O)C4CC4)C3)n3c2c1OC[C@@H]3c1ccccn1 [Example 218, N-{(3R)-1-[(4S)-7-(3,5-dimethylisoxazol-4-yl)-4-pyridin-2-yl-4,5-dihydroimidazo[1,5,4-de][1,4]benzoxazin-2-yl]pyrrolidin-3-yl}cyclopropanesulfonamide] | < 1 µM
CC(=O)N1CCCN(c2nc3ccc(-c4c(C)noc4C)c4c3n2[C@@H](c2ccccn2)CO4)CC1 [Example 148, (4S)-2-(4-Acetyl-1,4-diazepan-1-yl)-7-(3,5-dimethylisoxazol-4-yl)-4-pyridin-2-yl-4,5-dihydroimidazo[1,5,4-de][1,4]benzoxazine] | < 1 µM
Cc1noc(C)c1-c1cc(C)c2[nH]c(=O)n3c2c1OCC3c1ccccc1 (stereo not drawn) [Example 46, 7-(3,5-Dimethylisoxazol-4-yl)-9-methyl-4-phenyl-4,5-dihydroimidazo[1,5,4-de][1,4]benzoxazin-2(1H)-one] | < 1 µM

Same assay, conditions: Homo sapiens, KMS-12-BM, 72 h, 3 days, Cell Titer-GLO, read-out: KMS cellular IC50

SMILES | IC50
Cc1cc(-c2ccnn2C)c2c3c1[nH]c(=O)n3C(c1ccccc1)CO2 (stereo not drawn) [Example 37, 9-Methyl-7-(1-methyl-1H-pyrazol-5-yl)-4-phenyl-4,5-dihydroimidazo[1,5,4-de][1,4]benzoxazin-2(1H)-one] | < 1 µM
Cc1noc(C)c1-c1ccc2[nH]c(=O)n3c2c1OC(C(=O)N(C)C)C3c1ccccc1 (single isomer, unassigned) [Example 47B, 7-(3,5-Dimethylisoxazol-4-yl)-N,N-dimethyl-2-oxo-4-phenyl-1,2,4,5-tetrahydroimidazo[1,5,4-de][1,4]benzoxazine-5-carboxamide] | 1 to 10 µM

From patent publication US10464947B2 (Incyte Corporation, priority 2013, dated 2019)
